Experimental data from US9694073B2, “Small molecule inhibitors of polynucleotide kinase/phosphatase, poly(ADP-ribose) polymerase and uses thereof” (THE GOVERNORS OF THE UNIVERSITY OF ALBERTA, priority 2009, dated 2017).
Entries after “also recorded” stand apart in the source; their conditions may differ.

Tests used:
aprataxin (APTX) = target: T1, aprataxin (APTX) (Homo sapiens, UniProt Q7Z2E3); experiment: 3'-DNA phosphatase activity of aprataxin; format: biochemical; settings: 50 μM
T1 construct: made in house; host or cells: E. coli BL21-Gold (DE3), QIAgene expression construct (Qiagen)
Method: Human recombinant aprataxin (APTX) protein with an N-terminal 6× His tag was expressed in BL21-Gold (DE3) E. coli competent cells (Stratagene, La Jolla, Calif.) using the QIAgene expression construct (Qiagen, Mississauga, ON). A single colony of kanamycin resistant E. coli was used to inoculate a 200-ml overnight culture (e.g., about 12 to about 16 hours in Luria-Bertani (LB) media containing 30 μg/ml kanamycin. Four 50-ml fractions of overnight culture were then subcultured into 4×1 L LB without kanamycin. Once the culture reached an optical density of ˜0.6 at 600 nm, protein expression was induced using 0.2 mM isopropyl-1-thio-β-galactopyranoside (Sigma, St Louis, Mo.) at 37° C. for 2 hours. Cells were harvested by centrifugation at 10,000 rpm for 10 minutes at 4° C. and resuspended in 40 ml buffer (50 mM NaH2PO4, 250 mM NaCl, 1 mM PMSF, at pH 7.9). The solution was then stirred on ice for 30 minutes in the presence of 30 mg lysozyme and 4 mg PMSF, 1 μg/ml each of pepstatin and leupeptin. […] His-APTX concentration was then determined using the Bio-Rad Protein assay (Bio-Rad, Mississauga, ON).
It was also tested whether A12B4C3 could inhibit aprataxin, which is another human DNA 3′-phosphatase. For this experiment, the oligonucleotide substrate was incubated with equal quantities of the two enzymes that were purified from bacteria on the same day. […]

A549 cells = experiment: Cell proliferation (MTS) assay, compound alone; format: cell-based, human; settings: 72 hours
Method: (§1) To determine the effect of the inhibition of PNKP by small molecule inhibitors on cell proliferation we used the CellTiter 96™ AQueous Non-Radioactive Cell Proliferation Assay (Promega, Madison Wis.), better known as the MTS assay. Approximately 2.5×10^3 A549 cells were plated in triplicate in a 96-well plate with different concentration of A12B4C3. After 72 hours, 20 μl of CellTiter 96 Aqueous One Solution Reagent was added to each well and cells were incubated for 4 more hours at 37° C. The absorbance recorded at 490 nm was used as the number of living cells in culture (FLUOstar Optima, BMG Labtechnologies).
(§2) A12B4C3 was first tested for inherent toxicity. Cytotoxicity was measured by cell proliferation assay after exposure of A549 human lung adenocarcinoma cells and MDA-MB-231 cells to different doses of the compound for 72 hours (FIG. 6A). A dose-dependent reduction in cell proliferation up to 50% at 100 μM A12B4C3 was observed. […] While not wishing to be bound by theory, this may be indicative of a maximal level of drug uptake. No effect on cell proliferation was detected after exposure to 1 μM A12B4C3.

MDA-MB-231 cells = experiment: Cell proliferation (MTS) assay, compound alone; format: cell-based, human; settings: 72 hours
Method: as §1, §2

calcineurin = calcineurin (Rattus norvegicus, UniProt P63329); experiment: Calcineurin pNPP phosphatase assay; format: biochemical; settings: concentration as high as 83.3 μM
Method: PP-1cγ and calcineurin activity was analyzed, using a colorimetric p-nitrophenol phosphate (pNPP) assay as previously described (33). The reaction were carried out in a 96-well microplate with a final volume of 60 μl containing 40 μl of pNPP assay buffer (50 mM Tris, pH 7.4, 0.1 mM EDTA, 30 mM MgCl2, 0.5 mM MnCl2, 1 mg/ml BSA, 0.2% β-mercaptoethanol), 0.03 μg PP-1cγ (specific activity>30 units per mg) or a catalytically equivalent quantity of calcineurin and 10 μl of 0.5 mM DNA 3′-phosphatase inhibitor sample in DMSO or 10 μl of 50 μM A12B4C3 sample in DMSO, or control solvent. After a 10-minute incubation at 37° C., 10 μl of 30 mM pNPP was added to each well and incubated for an additional of 60 minutes and 45 minutes for PP-1cγ and calcineurin, respectively. The absorbance at 405 nm was measured using a SOFTmax 2.35 microplate reader (Molecular Devices, Sunnyvale, Calif.).

[1] = Clonogenic survival assay, compound alone; format: cell-based; settings: 1 μM, exposure up to 24 hours (data not shown)
Method: The effect of hPNKP inhibition by A12B4C3 on cellular survival following exposure to ionizing radiation was measured in A549, A549δPNKP and MDA-MB-231 and MDA-MB-231δPNKP cells by clonogenic assays. Cells were seeded on 60-mm tissue culture plates at various concentrations to give between about 100-1000 colonies per plate and returned to the incubator overnight to allow the cells to attach. For radiosensitization studies, the cells were incubated with or without 1 μM A12B4C3 for 2 hours before irradiation and then exposed to increasing doses of γ-radiation (^60Co Gammacell; Atomic Energy of Canada Limited, Ottawa). After irradiation, cells were incubated for a further 24 hours in the same media and then washed twice with phosphate-buffered saline (PBS) and incubated in fresh media without the inhibitor. Colonies were stained with crystal violet after 10 to 14 days and counted with an automated Colcount colony counter (Oxford Optronix, Oxford, UK).
A12B4C3 was first tested for inherent toxicity. Cytotoxicity was measured by cell proliferation assay after exposure of A549 human lung adenocarcinoma cells and MDA-MB-231 cells to different doses of the compound for 72 hours (FIG. 6A). A dose-dependent reduction in cell proliferation up to 50% at 100 μM A12B4C3 was observed. […] No effect on cell proliferation was detected after exposure to 1 μM A12B4C3.

T1 sequence (Q7Z2E3 whole entry): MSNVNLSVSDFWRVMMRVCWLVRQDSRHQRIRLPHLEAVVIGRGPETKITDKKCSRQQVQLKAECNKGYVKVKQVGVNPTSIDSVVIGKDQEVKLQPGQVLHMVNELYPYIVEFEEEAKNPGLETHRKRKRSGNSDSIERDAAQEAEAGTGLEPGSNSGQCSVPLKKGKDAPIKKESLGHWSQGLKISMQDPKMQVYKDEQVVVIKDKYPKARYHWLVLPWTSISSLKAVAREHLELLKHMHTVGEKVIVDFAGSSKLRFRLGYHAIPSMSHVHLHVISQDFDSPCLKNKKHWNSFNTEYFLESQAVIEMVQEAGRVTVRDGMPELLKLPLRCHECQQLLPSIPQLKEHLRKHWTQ

CCCCCCCCCCC(O)C1C=CC2C(=O)N(c3ccccc3)C(=O)C2N1Nc1ccc([N+](=O)[O-])cc1 (stereo not shown) [Compound A12B4C3, 2-(1-hydroxyundecyl)-1-(4-nitrophenylamino)-6-phenyl-6,7a-dihydro-1H-pyrrolo[3,4-b]pyridine-5,7(2H,4aH)-dione]
inhibition of aprataxin phosphatase activity (aprataxin (APTX)): refractory | effect on cell proliferation (A549 cells; 1 μM): No effect | reduction in cell proliferation (A549 cells; 100 μM): up to 50% | effect on cell proliferation (MDA-MB-231 cells; 1 μM): No effect | reduction in cell proliferation (MDA-MB-231 cells; 100 μM): up to 50% | inhibition of calcineurin (calcineurin): Neither enzyme displayed inhibition; also recorded: no inhibition | cytotoxicity by clonogenic survival assay [1]: lack of cytotoxicity
